In one data set the test system is A. fumigatus. Put plainly: Minimal inhibitory concentration (MIC) against A. fumigatus. The data set is classed as cell-based. The following applies: Aspergillus fumigatus; minimal concentration that inhibits growth.
The next data set has as its system Aspergillus flavus. Put plainly: Minimal inhibitory concentration (MIC) against A. flavus. The following applies: 24 h at 25° C. in ½ PDB, minimal concentration that inhibits growth. Format: cell-based. As to the method:
(§1) To determine the MIC and MFC of a compound against Aspergillus flavus, Fusarium oxysporum or F. culmorum, a 2-fold dilution series of the compounds of the invention was incubated with the corresponding spore suspension in ½ PDB (potato dextrose broth, Difco) (2×10^4 spores/ml). […] MFC was determined as the minimal concentration of a compound resulting in less than 1% survival of the fungal culture relative to the DMSO control.

The test system of a further data set is C. glabrata. Put plainly: Minimal fungicidal concentration (MFC) against C. glabrata. The data set is classed as cell-based, Candida glabrata. To be noted: Nakaseomyces glabratus; 24 h at 37° C. in PBS; less than 1% survival relative to DMSO control. As to the method: (§2) Two-fold dilution series of the compounds were prepared in 50% DMSO. 5 μl of these series were added to 95 μl PBS buffer inoculated with 1/500 cells of an overnight culture of either C. albicans, C. glabrata or C. krusei (final DMSO conc 2%). 2% DMSO served as negative control. After 24 h incubation at 37° C. of these cultures with the antifungal compounds in PBS, the cell cultures were plated on YPD agar and colony forming units (CFUs) were determined after incubation of the plates for 2 days. MFC was determined as the minimal concentration of a compound resulting in less than 1% survival of the yeast culture relative to the DMSO control.

The test system of a further data set is C. albicans SC5314. In words: Minimal fungicidal concentration (MFC) against C. albicans. The data set is classed as cell-based. The following applies: Candida albicans, 24 h at 37° C. in PBS, less than 1% survival relative to DMSO control. How it is done:
as §2

A further data set has as its system Fusarium oxysporum. In words: Minimal inhibitory concentration (MIC) against F. oxysporum. Format: cell-based. The following applies: 24 h at 25° C. in ½ PDB, minimal concentration that inhibits growth. As to the method: as §1
The test system of a further data set is HepG2 cells. In words: Cellular cytostatic and/or cytotoxic effect on HepG2 cells. The data set is classed as cell-based. How it is done: Evaluation of the cytostatic and/or cytotoxic effect of compounds on certain specific eukaryotic cells is a standard procedure and well known to the person skilled in the art. The effect of a selection of compounds of the invention on the proliferation of HepG2 cells was measured.

Values after ≈ are worked out from the molar mass of the structure shown.

The source of these data is patent US20120252801A1, “ANTIFUNGAL COMPOUNDS” (Katholieke Universiteit Leuven, K.U.Leuven R&D, priority 2009, published 2012).

`CCN1CC(C)(C)OC(=O)C1CC(=O)Nc1ccc2c(ccn2C)c1` (stereo not shown) [CPD-07, 2-(4-ethyl-6,6-dimethyl-2-oxomorpholin-3-yl)-N-(1-methyl-1H-indol-5-yl)acetamide]: the MIC (in general, the lowest concentration that inhibits growth of the organism) against A. fumigatus is 3.12 µg/mL (≈ 9.1 µM); with Aspergillus flavus, 25 µg/mL (≈ 72.8 µM); with Fusarium oxysporum, 50 µg/mL (≈ 146 µM). Besides, the figures for the minimum fungicidal concentration (MFC) against C. glabrata and against C. albicans SC5314 were 50 µg/mL (≈ 146 µM) and 12.5 µg/mL (≈ 36.4 µM), respectively. Further, the “LD30 48 h (lethal dose for 30% of the cells in culture)” value in the data set with HepG2 cells was >25 µM.

In the case of `CCN1CC(C)(C)OC(=O)C1CC(=O)NCc1ccc(Cl)cc1` (stereo not shown) [CPD-08, N-(4-chlorobenzyl)-2-(4-ethyl-6,6-dimethyl-2-oxomorpholin-3-yl)acetamide], the results for the MIC against A. fumigatus, in the data set with Aspergillus flavus and against Fusarium oxysporum were 6.25 µg/mL (≈ 18.4 µM), 25 µg/mL (≈ 73.8 µM) and 50 µg/mL (≈ 148 µM), respectively. Moreover, the MFC with C. glabrata and against C. albicans SC5314 was 12.5 µg/mL (≈ 36.9 µM) in each case. Further, in the data set with HepG2 cells, the “LD30 48 h (lethal dose for 30% of the cells in culture)” value was >25 µM.

Consider `CCN1CC(C)(C)OC(=O)C1CC(=O)NCc1cccs1` (stereo not shown) [CPD-22, 2-(4-ethyl-6,6-dimethyl-2-oxomorpholin-3-yl)-N-(thiophen-2-ylmethyl)acetamide], for which the minimal inhibitory concentration (MIC) is 25 µg/mL (≈ 80.5 µM) against A. fumigatus, 50 µg/mL (≈ 161 µM) against Aspergillus flavus and 50 µg/mL (≈ 161 µM) with Fusarium oxysporum. Besides, the figures for the MFC against C. glabrata and against C. albicans SC5314 were 50 µg/mL (≈ 161 µM) and 25 µg/mL (≈ 80.5 µM), respectively. Further, the “LD30 48 h (lethal dose for 30% of the cells in culture)” value in the data set on HepG2 cells is >25 µM.

As for `CCN1CC(C)(C)OC(=O)C1CC(=O)NCc1cccc(Cl)c1` (stereo not shown) [CPD-49, N-(3-chlorobenzyl)-2-(4-ethyl-6,6-dimethyl-2-oxomorpholin-3-yl)acetamide], the MIC was 3.12 µg/mL (≈ 9.22 µM) against A. fumigatus, 50 µg/mL (≈ 148 µM) against Aspergillus flavus and 50 µg/mL (≈ 148 µM) against Fusarium oxysporum. The minimal fungicidal concentration (MFC) with C. glabrata and in the data set on C. albicans SC5314 was 6.25 µg/mL (≈ 18.4 µM) in each case. Further, the “LD30 48 h (lethal dose for 30% of the cells in culture)” value in the data set with HepG2 cells is >25 µM.

Consider `CCN1CC(C)(C)OC(=O)C1CC(=O)NCc1c(Cl)cccc1Cl` (stereo not shown) [CPD-51, N-(2,6-dichlorobenzyl)-2-(4-ethyl-6,6-dimethyl-2-oxomorpholin-3-yl)acetamide], for which the MIC with A. fumigatus came to 12.5 µg/mL (≈ 33.5 µM); with Aspergillus flavus, 50 µg/mL (≈ 134 µM); in the data set on Fusarium oxysporum it was 50 µg/mL (≈ 134 µM). Moreover, the figures for the minimal fungicidal concentration (MFC) in the data set on C. glabrata and in the data set on C. albicans SC5314 were 25 µg/mL (≈ 67 µM) and 12.5 µg/mL (≈ 33.5 µM), respectively. In addition, in the data set on HepG2 cells, the “LD30 48 h (lethal dose for 30% of the cells in culture)” value is >25 µM.

For `CC(C)c1ccc(NC(=O)CC2C(=O)OC(C)(C)CN2S(C)(=O)=O)cc1` (stereo not shown) [CPD-75, 2-(6,6-dimethyl-4-(methylsulfonyl)-2-oxomorpholin-3-yl)-N-(4-isopropylphenyl)acetamide], the MIC is 12.5 µg/mL (≈ 32.7 µM) with A. fumigatus, > 25 µg/mL in the data set with Aspergillus flavus and > 25 µg/mL against Fusarium oxysporum. The minimal fungicidal concentration (MFC) in the data set on C. glabrata and in the data set on C. albicans SC5314 was > 25 µg/mL in each case.

Take `CCN1CC(C)(C)OC(=O)C1CC(=O)NCc1ccc(C)cc1` (stereo not shown) [CPD-76, 2-(4-ethyl-6,6-dimethyl-2-oxomorpholin-3-yl)-N-(4-methylbenzyl)acetamide]: the MIC with A. fumigatus was 3.12 µg/mL (≈ 9.81 µM); against Aspergillus flavus it was 25 µg/mL (≈ 78.5 µM); in the data set with Fusarium oxysporum it was > 25 µg/mL. Besides, the MFC (as a rule, the smallest concentration meeting the test's criterion for killing the fungus) against C. glabrata stood at 6.25 µg/mL (≈ 19.6 µM); in the data set with C. albicans SC5314, 25 µg/mL (≈ 78.5 µM).

For the compound `CCN1CC(C)(C)OC(=O)C1CC(=O)NCc1ccccc1C(F)(F)F` (stereo not shown) [CPD-77, 2-(4-ethyl-6,6-dimethyl-2-oxomorpholin-3-yl)-N-(2-(trifluoromethyl)benzyl)acetamide], the MIC is 3.12 µg/mL (≈ 8.39 µM) with A. fumigatus, 25 µg/mL (≈ 67.1 µM) with Aspergillus flavus and 25 µg/mL (≈ 67.1 µM) in the data set on Fusarium oxysporum. In addition, the MFC against C. glabrata is 12.5 µg/mL (≈ 33.6 µM); in the data set on C. albicans SC5314, 25 µg/mL (≈ 67.1 µM).

On to `CCN1CC(C)(C)OC(=O)C1CC(=O)NCc1cccc(C(F)(F)F)c1` (stereo not shown) [CPD-78, 2-(4-ethyl-6,6-dimethyl-2-oxomorpholin-3-yl)-N-(3-(trifluoromethyl)benzyl)acetamide], for which the MIC is 6.25 µg/mL (≈ 16.8 µM) in the data set on A. fumigatus, > 25 µg/mL against Aspergillus flavus and > 25 µg/mL in the data set on Fusarium oxysporum. The minimal fungicidal concentration (MFC) against C. glabrata turned out to be 12.5 µg/mL (≈ 33.6 µM); against C. albicans SC5314 it was 25 µg/mL (≈ 67.1 µM).

Take `CCN1CC(C)(C)OC(=O)C1CC(=O)NCc1ccccc1OC` (stereo not shown) [CPD-79, 2-(4-ethyl-6,6-dimethyl-2-oxomorpholin-3-yl)-N-(2-methoxybenzyl)acetamide]: the minimum inhibitory concentration (MIC) was 12.5 µg/mL (≈ 37.4 µM) in the data set with A. fumigatus, > 25 µg/mL in the data set on Aspergillus flavus and > 25 µg/mL in the data set on Fusarium oxysporum. The values for the MFC against C. glabrata and with C. albicans SC5314 were 25 µg/mL (≈ 74.8 µM) and > 25 µg/mL, respectively.

`CCN1CC(C)(C)OC(=O)C1CC(=O)NCc1cccc(OC)c1` (stereo not shown) [CPD-80, 2-(4-ethyl-6,6-dimethyl-2-oxomorpholin-3-yl)-N-(3-methoxybenzyl)acetamide]: the MIC was 6.25 µg/mL (≈ 18.7 µM) against A. fumigatus, > 25 µg/mL in the data set on Aspergillus flavus and > 25 µg/mL with Fusarium oxysporum. The MFC in the data set with C. glabrata came out at 12.5 µg/mL (≈ 37.4 µM); in the data set on C. albicans SC5314, 25 µg/mL (≈ 74.8 µM).

Take `CCN1CC(C)(C)OC(=O)C1CC(=O)NCc1ccccc1-c1ccccc1` (stereo not shown) [CPD-81, N-(biphenyl-2-ylmethyl)-2-(4-ethyl-6,6-dimethyl-2-oxomorpholin-3-yl)acetamide]: the MIC against A. fumigatus worked out at 3.12 µg/mL (≈ 8.21 µM); against Aspergillus flavus, 25 µg/mL (≈ 65.7 µM); against Fusarium oxysporum, 25 µg/mL (≈ 65.7 µM). Also, the minimum fungicidal concentration (MFC) with C. glabrata and against C. albicans SC5314 was 12.5 µg/mL (≈ 32.9 µM) each time.

On to `CCN1CC(C)(C)OC(=O)C1CC(=O)NCc1cccc(-c2ccccc2)c1` (stereo not shown) [CPD-82, N-(biphenyl-3-ylmethyl)-2-(4-ethyl-6,6-dimethyl-2-oxomorpholin-3-yl)acetamide], for which the minimum inhibitory concentration (MIC) with A. fumigatus stood at 3.12 µg/mL (≈ 8.21 µM); in the data set on Aspergillus flavus, 25 µg/mL (≈ 65.7 µM); with Fusarium oxysporum it was 25 µg/mL (≈ 65.7 µM). For the same compound, the minimal fungicidal concentration (MFC) against C. glabrata and against C. albicans SC5314 was 12.5 µg/mL (≈ 32.9 µM) throughout.
